{
  "source": "ChEMBL document CHEMBL3044811",
  "about": "“Efficacy of grain protectants against four psocid species on maize, rice and wheat” (2009)",
  "key": {"[1]": {"tested_on": "Liposcelis bostrychophila", "assay": "Insecticidal activity against Liposcelis bostrychophila (booklice) in compound pre-treated maize grains assessed as decrease in progeny production at 8 ppm after 30 days", "assay_type": "functional, organism-based"}, "[2]": {"tested_on": "Lepinotus reticulatus", "assay": "Insecticidal activity against Lepinotus reticulatus in compound pre-treated maize grains assessed as decrease in progeny production at 8 ppm after 30 days", "assay_type": "functional, organism-based"}, "[3]": {"tested_on": "Liposcelis bostrychophila", "assay": "Insecticidal activity against Liposcelis bostrychophila (booklice) in compound pre-treated maize grains assessed as mortality at 8 ppm after 7 days (reference value: 8.9 +/-2.6%)", "assay_type": "functional"}, "[4]": {"tested_on": "Liposcelis bostrychophila", "assay": "Insecticidal activity against Liposcelis bostrychophila (booklice) in compound pre-treated maize grains assessed as mortality at 8 ppm after 14 days (reference value: 13.5 +/-5.3%)", "assay_type": "functional"}, "[5]": {"tested_on": "Liposcelis entomophila", "assay": "Insecticidal activity against Liposcelis entomophila in compound pre-treated maize grains assessed as mortality at 8 ppm after 7 days (reference value: 15.6 +/-6.9%)", "assay_type": "functional"}, "[6]": {"tested_on": "Lepinotus reticulatus", "assay": "Insecticidal activity against Lepinotus reticulatus in compound pre-treated maize grains assessed as mortality at 8 ppm after 7 days (reference value: 34.4 +/-11.4%)", "assay_type": "functional"}, "[7]": {"tested_on": "Liposcelis entomophila", "assay": "Insecticidal activity against Liposcelis entomophila in compound pre-treated maize grains assessed as decrease in progeny production at 8 ppm after 30 days", "assay_type": "functional, organism-based"}, "[8]": {"tested_on": "Liposcelis entomophila", "assay": "Insecticidal activity against Liposcelis entomophila in compound pre-treated maize grains assessed as mortality at 8 ppm after 14 days (reference value: 14.4 +/-4.1%)", "assay_type": "functional"}, "[9]": {"tested_on": "Liposcelis paeta", "assay": "Insecticidal activity against Liposcelis paeta in compound pre-treated maize grains assessed as mortality at 8 ppm after 14 days (reference value: 14.1 +/-4.1%)", "assay_type": "functional"}, "[10]": {"tested_on": "Liposcelis paeta", "assay": "Insecticidal activity against Liposcelis paeta in compound pre-treated maize grains assessed as mortality at 8 ppm after 7 days (reference value: 13.3 +/-3.3%)", "assay_type": "functional"}, "[11]": {"tested_on": "Lepinotus reticulatus", "assay": "Insecticidal activity against Lepinotus reticulatus in compound pre-treated maize grains assessed as mortality at 8 ppm after 14 days (reference value: 61.1 +/-11.9%)", "assay_type": "functional"}},
  "note": "The source made the active and inactive calls. The rule behind the calls is not given here.",
  "data": [
    {"smiles": "CCN(CC)c1nc(C)cc(OP(=S)(OC)OC)n1", "note": "[PIRIMIPHOS METHYL]", "values": [
      {"measurement": "inhibition", "setting": "[1]", "value": "Active"},
      {"measurement": "inhibition", "setting": "[2]", "value": "Active"},
      {"measurement": "mortality at 8 ppm", "setting": "[3]", "value": 100, "unit": "%"},
      {"measurement": "mortality at 8 ppm", "setting": "[4]", "value": 100, "unit": "%"},
      {"measurement": "mortality at 8 ppm", "setting": "[5]", "value": 100, "unit": "%"},
      {"measurement": "mortality at 8 ppm", "setting": "[6]", "value": 100, "unit": "%"},
      {"measurement": "inhibition", "setting": "[7]", "value": "Active"},
      {"measurement": "mortality at 8 ppm", "setting": "[8]", "value": 100, "unit": "%"},
      {"measurement": "mortality at 8 ppm", "setting": "[9]", "value": 100, "unit": "%"},
      {"measurement": "mortality at 8 ppm", "setting": "[10]", "value": 97.8, "unit": "%"},
      {"measurement": "mortality at 8 ppm", "setting": "[11]", "value": 100, "unit": "%"}
    ]}
  ]
}
